Measurements reported in patent US10265329B2, “Altering steroid metabolism for treatment of steroid-dependent disease” (THE CLEVELAND CLINIC FOUNDATION, priority 2015, dated 2019).

Target: T1, CYP17A1 (Homo sapiens, UniProt P05093)
T1 construct: expressed in transfected cells
T1 sequence (P05093 1-508): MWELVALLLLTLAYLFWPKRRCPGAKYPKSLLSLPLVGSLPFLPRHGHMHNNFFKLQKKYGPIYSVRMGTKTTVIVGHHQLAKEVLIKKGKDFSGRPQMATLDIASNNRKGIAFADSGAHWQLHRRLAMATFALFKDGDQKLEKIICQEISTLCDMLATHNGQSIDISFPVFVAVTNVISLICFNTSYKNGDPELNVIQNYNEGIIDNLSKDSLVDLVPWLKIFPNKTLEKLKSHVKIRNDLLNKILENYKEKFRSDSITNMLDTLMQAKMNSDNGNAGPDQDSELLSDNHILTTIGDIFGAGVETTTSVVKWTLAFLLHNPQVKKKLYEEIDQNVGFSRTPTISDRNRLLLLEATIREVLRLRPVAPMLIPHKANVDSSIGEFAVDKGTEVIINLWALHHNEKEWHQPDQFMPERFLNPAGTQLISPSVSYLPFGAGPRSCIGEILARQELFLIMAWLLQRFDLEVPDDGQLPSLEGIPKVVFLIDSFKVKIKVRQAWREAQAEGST
Experiment: Conversion of [3H]-pregnenolone to DHEA in 293 cells expressing CYP17A1
Format: cell-based
Conditions: for CYP17A1 inhibition activity relative to Abi and D4A: 293 cells overexpressing CYP17A1, [3H]-pregnenolone to DHEA
Source text: LNCaP and VCaP cells were purchased from the American Type Culture Collection (Manassas, Va.) and maintained in RPMI-1640 with 10% FBS. LAPC4 cells were kindly provided by Dr. Charles Sawyers (Memorial Sloan Kettering Cancer Center, New York, N.Y.) and grown in Iscove's Modified Dulbecco's Medium with 10% FBS. C4-2 cells were kindly provided by Dr. Leland Chung (Cedars-Sinai Medical Center, Los Angeles, Calif.) and maintained in RPMI-1640 with 10% FBS. All experiments done with LNCaP and VCaP were done in plates coated with poly-DL-ornithine (Sigma-Aldrich, St. Louis, Mo.). A 293 cell line stably expressing human CYP17A1 was generated by transfection with plasmid pcDNA3-CYP17 (a generous gift of Dr. Walter Miller, University of California, San Francisco) and selection with G418. Cell lines was authenticated by DDC Medical (Fairfield, Ohio) and determined to be […] mycoplasma free with primers.
Cell Line Metabolism: Cells were seeded and incubated in 12-well plates with 0.2 million cells/well for ˜24 h and then incubated with a mixture of radioactive ([^3H]-labeled) and non-radioactive androgens (final concentration, 100 nM; ˜1,000,000 cpm/well; PerkinElmer, Waltham, Mass.) at 37° C. Aliquots of medium were collected at the indicated times. Collected medium was treated with 1,000 units of β-glucuronidase (Helix pomatia; Sigma-Aldrich) at 65° C. for 2 h, extracted with 860 μL ethyl acetate:isooctane (1:1), and concentrated under nitrogen gas. Xenograft Metabolism: 10^7 LNCaP or VCaP cells were injected subcutaneously with Matrigel into surgically orchiectomized NSG mice that were implanted with 5 mg 90-day sustained-release DHEA pellets (Innovative Research of American, Sarasota, Fla.). Xenografts were harvested when they reached 1000 mm^3, minced, and cultured in DMEM with 10% FBS at 37° C. with mixture of radioactive ([^3H]-labeled) and non-radioactive androgens, or Abi, when they reached 1000 mm^3. Each xenograft was analyzed in triplicate in at least three independent experiments. Aliquots of medium were collected at the indicated times. […]
Dried samples were reconstituted in 50% methanol and injected into the HPLC. […] Alternatively, dried samples were applied to plastic-backed silica gel plates and separated by thin-layer chromatography (TLC) using a mobile phase of 3:1 chloroform:ethyl acetate, followed by exposure of the plates to a phosphorimager screen and quantitated with a Storm model 860 phosphorimager (Applied Biosystems, Foster City, Calif.). […]
Cell lines, drugs and constructs. […] Cell lines were authenticated by DDC Medical (Fairfield, Ohio) and determined to be mycoplasma free with primers. […]

| SMILES | CYP17A1 inhibition activity relative to Abi and D4A | % conversion to DHEA (1 nM drug, 3 h incubation, vehicle 70.1%) [%] |
| --- | --- | --- |
| C[C@]12CC[C@@H](O)C[C@@H]1CC[C@@H]1[C@@H]2CC[C@]2(C)C(c3cccnc3)=CC[C@@H]12 [Compound 3α-OH-5α-Abi, 17-(3-pyridyl)-5α-androsta-16-ene-3α-ol] | attenuated |  |
| C[C@]12CCC(=O)C[C@@H]1CC[C@@H]1[C@@H]2CC[C@]2(C)C(c3cccnc3)=CC[C@@H]12 [Compound 5α-Abi, 17-(3-pyridyl)-5α-androsta-16-ene-3-one] | attenuated |  |
| C[C@]12CCC(=O)C=C1CC[C@@H]1[C@@H]2CC[C@]2(C)C(c3cccnc3)=CC[C@@H]12 [Compound D4A, 17-(3-Pyridyl)androsta-4,16-dien-3-one] |  | 4.2 |
